From patent US20100081689A1, “Methods and Compositions for the Treatment of Iron Toxicity” (Georgetown University, priority 2008, published 2010)
Each block holds one compound with its values, some of them ahead of it.

Experiments:
aortic ring = details: cited from earlier work; for iron-induced endothelial dysfunction of the blood vessel: rats, iron co-administered with the antioxidant
rat aortic rings = experiment: animal or person; type: in vivo, Sprague-Dawley rats; details: for relaxation response to acetylcholine at 100 nM in iron treated rats given antioxidant: 100 nM acetylcholine, iron sucrose plus Tempol (drinking water), N-acetylcysteine 140 mg/kg iv or Vitamin C 100 mg/kg iv, iron alone 22±10%; for Maximum relaxation of aortic ring in iron-treated animals given antioxidant: iron sucrose 14 mg/kg iv plus Tempol 2 mmol/L in drinking water 72 h or N-acetylcysteine 140 mg/kg iv, iron alone 46±14%
Protocol: Forty seven normal Sprague-Dawley rats (280-350 g) were included in this study. Twenty three rats were injected in the tail vein with 14 mg/kg iron sucrose (Venofer, American Regent) twenty four hours before dissection of the aortic ring.
Twenty four hours after iron sucrose injection, the rats were sacrificed by interperitoneal injection of 100 mg/kg Inactin. Blood was collected for measurement of markers of oxidative stress and the thoracic aorta isolated and placed in ice cold PSS.
The surrounding tissue of aorta was carefully dissected away and care taken to not damage the endothelium. The aorta was then cut into a 4-5 mm width transverse ring and then mounted isometrically in 10 mL organ bath containing oxygenated PSS warmed to 37° C. and gassed with air.
The aortic ring was suspended under a resting force of […] and allowed to equilibrate for 30 minutes before administration of any agents. The bath was perfused with fresh PSS and was washed with PSS after each test response to the administered agents. The aortic ring was preconstricted with 10 nM phenylephrine prior to the addition of acetylcholine, and allowed to equilibrate for another 30 minutes.
Isometric contraction was measured on an oscillographic recorder. Subsequently acetylcholine was added to the bath in increasing doses of 1 nM to 100 μM and the relaxation response to each dose was recorded as the percentage of the drop in the starting resting force. […] P<0.05 was considered significant.

MDA levels = details: CKD patients treated with iron gluconate; cited from earlier work
oxidative stress markers = details: cited from earlier work
[1] = light stability of Tempol solutions; type: physicochemical; details: solutions left in sunlight

relaxation response of aortic ring to increasing doses of acetylcholine (rat aortic rings; rat, in vivo): significantly reduced
relaxation response to acetylcholine at 100 nM (rat aortic rings; rat, in vivo): 22±10%
Maximum relaxation of aortic ring (percentage of the drop in the starting resting force) (rat aortic rings; rat, in vivo, iv, 14 mg/kg): 46±14%
Compound: iron sucrose
reduction in aortic ring vasodilation in response to acetylcholine (aortic ring; rat, in vivo, iv): 40%

IC50 (rat aortic rings; Rattus norvegicus, iv, aortic rings preconstricted with 10 nM phenylephrine, all treatment groups, read-out: IC50 for all dose response curves (acetylcholine relaxation of aortic ring)): 100 nM
Compound: CC(=O)OCC[N+](C)(C)C [acetylcholine]

Compound: CC(=O)N[C@@H](CS)C(=O)O [N-acetylcysteine]
iron-induced endothelial dysfunction of the blood vessel (aortic ring): completely attenuated
relaxation response to acetylcholine at 100 nM in iron treated rats given antioxidant (rat aortic rings): 42±13%
Maximum relaxation of aortic ring in iron-treated animals given antioxidant (rat aortic rings): 69.9±13%
MDA level decrease after iron gluconate (MDA levels): not observed

Compound: O=C1O[C@H]([C@@H](O)CO)C(O)=C1O [Vitamin C]
reducing iron-induced oxidative stress markers (oxidative stress markers; dialysis population): not been shown to be effective
effect when co-administered with iron (oxidative stress markers; subjects with physiologic Vitamin C levels): pro-oxidant effect
relaxation response to acetylcholine at 100 nM in iron treated rats given antioxidant (rat aortic rings): 41±8%
relaxation response to 100 nM through 100 μM of acetylcholine, addition to iron treatment (rat aortic rings; Vitamin C 100 mg/kg iv with iron sucrose, only statistically significant at 100 nM acetylcholine (FIG. 3)): increased the relaxation response

Compound: CC1(C)CC(O)CC(C)(C)N1[O] [Tempol, 4-hydroxy-2,2,6,6-tetramethyl-1-piperidine-1-oxyl]
stability of solutions in sunlight [1]: discolor when left in sunlight
iron-induced endothelial dysfunction of the blood vessel (aortic ring): completely attenuated
relaxation response to acetylcholine at 100 nM in iron treated rats given antioxidant (rat aortic rings): 48±17%
Maximum relaxation of aortic ring in iron-treated animals given antioxidant (rat aortic rings): 75±15%
